Measurements taken from patent US12396951B2, “Prevention of local tumor recurrence following surgery using sustainedand/or delayed release of medicaments contained in micro-particles” (UPEXMED CO. LTD., priority 2016, dated 2025).

Assay: In vitro release study of EVE-PLGA microsphere (sample-and-separate method)
Assay type: physicochemical
Details: during in vitro release study, release medium pH 7.4, 37° C.
Protocol: The in vitro release study was carried out by a sample-and-separate method. Briefly, 20 mg of microsphere sample (n=3) was taken in a 100 mL flask and dispersed in 50 mL of release medium (0.5% Tween 20 and 0.1% sodium azide in phosphate buffered saline (PBS) at pH 7.4). The flasks were placed in an orbital agitating incubator at 37° C. and shaken at 100 rpm. At certain time points (E10PA53 at 1, 3, 7, 14, 21, 28, 35, 42, 49, 56 days and E10PE77 at 1, 3, 7, 14, 21, 28, 35, 42, 49, 56, 63, 70, 77, 84, 91 days), all medium was collected and filtered on filter paper. The filtered pellet was freeze-dried for 24 h and dissolved in acetonitrile. The content of the unreleased EVE was then analyzed by HPLC as described above. Since EVE was known to be degradable in aqueous solution as a free form in a time-dependent manner, the EVE content was analyzed in the microsphere residue.
The microspheres were also prepared using a membrane with a pore size of 50 μm, which produced microspheres having a diameter size larger than 75 μm. To analyze the release behavior of EVE from the microspheres, an in vitro release study was performed by a sample-and-separate method at physiological conditions. […] The content of EVE was determined in the remaining microsphere after collecting whole samples at certain time points to avoid degradation-related loss of EVE in an aqueous environment.

stability of EVE in the microsphere: no change in the stability
Compound: CO[C@H]1C[C@@H]2CC[C@@H](C)[C@@](O)(O2)C(=O)C(=O)N2CCCC[C@H]2C(=O)O[C@H]([C@H](C)C[C@@H]2CC[C@@H](OCCO)[C@H](OC)C2)CC(=O)[C@H](C)/C=C(\C)[C@@H](O)[C@@H](OC)C(=O)[C@H](C)C[C@H](C)/C=C/C=C/C=C/1C [EVE, everolimus]
